From patent US9464064B2, “HCV helicase inhibitors and methods of use thereof” (University of Kansas, priority 2011, dated 2016)
Where two headings read alike, the source gives them in different places.

Columns and labels:
NS3h_2a(JFH1) = target: T1, NS3h_2a(JFH1) (Hepatitis C virus genotype 2a, UniProt Q99IB8); experiment: MBHA, DNA substrate, genotype 2a helicase; assay type: biochemical, hepatitis C virus genotype 2a(JFH1)
T1 construct: truncated C-terminally His-tagged NS3 proteins lacking the N-terminal protease, called NS3h; His-tag (C); made in house
T1 sequence (Q99IB8 1196-1661): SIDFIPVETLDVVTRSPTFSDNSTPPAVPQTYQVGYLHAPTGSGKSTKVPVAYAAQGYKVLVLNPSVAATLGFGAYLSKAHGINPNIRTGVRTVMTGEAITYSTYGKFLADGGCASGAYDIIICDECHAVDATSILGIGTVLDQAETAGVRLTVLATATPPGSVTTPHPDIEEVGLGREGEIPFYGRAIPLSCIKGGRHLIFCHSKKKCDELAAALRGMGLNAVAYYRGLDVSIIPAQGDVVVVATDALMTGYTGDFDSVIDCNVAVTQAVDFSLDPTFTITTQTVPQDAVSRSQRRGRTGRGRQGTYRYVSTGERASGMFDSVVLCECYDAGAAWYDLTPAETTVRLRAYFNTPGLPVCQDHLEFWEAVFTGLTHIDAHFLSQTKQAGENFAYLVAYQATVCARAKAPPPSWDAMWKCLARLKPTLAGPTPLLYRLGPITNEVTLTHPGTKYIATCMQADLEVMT
Protocol: All oligonucleotides were purchased from Integrated DNA Technologies (IDT, Coralville, Iowa). Primuline derivatives were synthesized and purified as described herein. Three different NS3 proteins were used in this study. Two were truncated C-terminally His-tagged NS3 proteins lacking the N-terminal protease, called NS3h, the third was a full-length NS3 with the portion of NS4A needed for protease activation fused to its N-terminus, called scNS4A-NS3 (Howe, et al. (1999) Protein Sci. 8:1332-41), and the fourth was a 23 kDa scNS4A-NS3 protease fragment lacking the helicase domains, called scNS4A-NS3p (Protein One, Rockville, Md.). NS3h was expressed from two different HCV strains. NS3h_1b(con1) was from the con1 strain of genotype 1b (GENBANK accession AB114136), and NS3h_2a(JFH1) was from the JFH1 strain of HCV genotype 2a (GENBANK accession AJ238799). […] His-tagged recombinant NS3h_1b(con1), NS3h_2a(JFH1), and scNS4A-NS3 (also from genotype 1b(con1)) were expressed, and purified as previously described (Frick, et al. (2010) supra; Lam, et al. (2003) J. Virol. 77:3950-3961). The scNS4A-NS3p (genotype 1b) was from Protein One. A plasmid expressing NS3h from dengue virus strain 2 (NS3h_DV2)(GENBANK accession 2BMF) is known in the art (Xu, et al. (2005) J. Virol. 79:10278-10288), and used to express and purify NS3h_DV2 (Belon, et al. (2010) supra)
Compounds that specifically target less conserved regions of a HCV protein are often not potent inhibitors of the same protein derived from other genotypes, and they might be susceptible to rapid evolution of related viruses. As described herein, primuline derivatives can inhibit HCV helicase isolated from the genotype 1b(con1) strain. Therefore to further analyze specificity, the subset of primuline analogs was tested on the helicase isolated from the genotype 2a(JFH1) strain. The two recombinant proteins differ at 83 of their 480 amino acids. The JHF1 strain is also of interest because it serves as the backbone for HCV strains capable of replicating in cell culture (Wakita, et al. (2005) Nat. Med. 11:791-796). The molecular beacon-based helicase assay (MBHA) (Belon & Frick (2008) supra) was used to measure the ability of each compound to inhibit DNA unwinding catalyzed by NS3h isolated from genotype 2a(JFH1) (NS3h_2a(JFH1)). […] Selected compounds were also tested for the ability to inhibit helicase reactions catalyzed by full-length NS3 and a single chain NS4A-NS3 protein (scNS4A-NS3) described below and used for protease assays.

Huh-7.5 cells = experiment: Cell viability assay ([…]-GLO); assay type: cell-based, human; details: for Cell viability (% viable): 10 μM compound, triplicate, average ± SD
Protocol: To assess compound toxicity toward Huh-7.5 cells, cells were plated and treated as above and cell viability was assessed using the […]-GLO luminescent cell viability kit (PROMEGA) following the manufacturer's instructions. Briefly, at the end of a 72 hour incubation period, the medium was aspirated and the cells were washed with 1×PBS, then an equal volume of growth medium and […]-GLO reagent was added and the lysis was initiated by mixing on an orbital shaker. The plate was incubated at 23° C. for 30 minutes and the luciferase activity was measured for 1 second using the FLUOSTAR Omega microplate reader (BMG Labtech).

[1] = target: T2, HCV NS3 helicase NS3h_1b(con1) (Hepatitis C virus genotype 1b, UniProt Q9WMX2); experiment: biochemical; assay type: biochemical, hepatitis C virus genotype 1b(con1)
T2 construct: truncated C-terminally His-tagged NS3 proteins lacking the N-terminal protease, called NS3h; His-tag (C); made in house
T2 sequence (Q9WMX2 1192-1657): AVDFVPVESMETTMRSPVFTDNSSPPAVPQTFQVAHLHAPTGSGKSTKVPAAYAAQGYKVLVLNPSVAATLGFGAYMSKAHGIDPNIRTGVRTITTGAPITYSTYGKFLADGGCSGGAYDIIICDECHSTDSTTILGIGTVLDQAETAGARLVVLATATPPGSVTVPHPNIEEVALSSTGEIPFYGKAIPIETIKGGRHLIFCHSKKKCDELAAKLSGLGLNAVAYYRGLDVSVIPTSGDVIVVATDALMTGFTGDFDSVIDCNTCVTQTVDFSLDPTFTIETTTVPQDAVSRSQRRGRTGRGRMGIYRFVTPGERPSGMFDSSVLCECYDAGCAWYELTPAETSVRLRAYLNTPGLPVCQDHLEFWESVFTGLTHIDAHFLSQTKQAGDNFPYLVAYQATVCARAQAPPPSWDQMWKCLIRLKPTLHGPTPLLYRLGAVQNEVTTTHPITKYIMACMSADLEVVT
In short: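 Molecular beacon helicase assay with His-tagged recombinant NS3 and a Cy5/IBRQ-labelled partially duplex DNA substrate (25 bp) or Tye665-labelled RNA substrate (19 bp). Reactions started with 1 mM ATP. Screening read fluorescence before and 30 min after ATP (ex 643/em 670 nm). For IC50, 5% v/v DMSO was present, initial velocities came from first-order decay fits, and a Hill equation was applied.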

[2] = DNA-based MBHA, genotype 2a(JFH1), read-out: DNA Helicase NS3h_2a IC50 (μM) ± SD
[3] = genotype 2a (JFH1), read-out: Target Potency MBHA (IC50 avg., μM) 2a (JFH1) (converted)
[4] = DNA-based MBHA, genotype 1b, read-out: DNA Helicase NS3h_1b IC50 (μM) ± SD
[5] = MBHA, DNA unwinding, mean ± SD of three titrations, read-out: Helicase IC50
[6] = genotype 1b (con1), read-out: Target Potency MBHA (IC50 avg., μM) 1b (con1)
[7] = standard HCV helicase MBHA (Table 9), read-out: DNA Unwinding IC50

Row | Compound | IC50 (NS3h_2a(JFH1); [2]) [µM] | IC50 (NS3h_2a(JFH1); [3]) [µM] | Cell Viability (% @ 10 μM) (Huh-7.5 cells) [%] | Cell viability (% viable) (Huh-7.5 cells) [%] | IC50 [1, 4] [µM] | IC50 [1, 5] [µM] | IC50 [1, 6] [µM] | IC50 [1, 7] [µM] | toxicity at highest concentration tested (Huh-7.5 cells; 50 μM)
1 | Cc1ccc2nc(-c3ccc4nc(-c5ccc(NC(=O)c6ccc7nc(-c8ccc(N)cc8)sc7c6)cc5)sc4c3)sc2c1S(=O)(=O)O [Compound 35, 2′-(4-(2-(4-aminophenyl)benzo[d]thiazole-6-carboxamido)phenyl)-6-methyl-[2,6′-bibenzo[d]thiazole]-7-sulfonic acid] | 3 ± 1.2 | 3.5 | 85 ± 2 | 85 ± 2 | 6 ± 2.1 | 5.5 ± 2.1 | 5.5 ± 2.1 | 6 ± 2 | 
2 | Cc1ccc2nc(-c3ccc4nc(-c5ccc(NC(=O)c6ccc(N(C)C)cc6)cc5)sc4c3)sc2c1S(=O)(=O)O [Compound 14, 2′-(4-(4-(dimethylamino)benzamido)phenyl)-6-methyl-[2,6′-bibenzo[d]thiazole]-7-sulfonic acid] |  | 6.4 ± 1.2 | 94 ± 5 | 94 ± 5 |  | 11 ± 6.7 | 11 ± 6.7 | 11 ± 7 | 
3 | Cc1ccc2nc(-c3ccc4nc(-c5ccc(NC(=O)c6cc(C(F)(F)F)ccc6F)cc5)sc4c3)sc2c1S(=O)(=O)O [Compound 25, 2′-(4-(2-fluoro-5-(trifluoromethyl)benzamido)phenyl)-6-methyl-[2,6′-bibenzo[d]thiazole]-7-sulfonic acid] | 7 ± 0.9 | 6.7 ± 1 | 132 ± 14 | 132 ± 14 | 6 ± 1.9 | 6.4 ± 2 | 6.4 ± 2 | 6 ± 2 | 
4 | Cc1ccc2nc(-c3ccc4nc(-c5ccc(NC(=O)c6cc(C(F)(F)F)cc(C(F)(F)F)c6)cc5)sc4c3)sc2c1S(=O)(=O)O [Compound 24, 2′-(4-(3,5-bis(trifluoromethyl)benzamido)phenyl)-6-methyl-[2,6′-bibenzo[d]thiazole]-7-sulfonic acid] | 29 ± 5.2 | 28.7 ± 5 | 122 ± 5 | 122 ± 5 | 22 ± 4.2 | 22 ± 4 | 22.2 ± 4 | 22 ± 4 | not toxic
5 | Cc1ccc2nc(-c3ccc4nc(-c5ccc(NC(=O)c6ccc(CNC(=O)OCC7c8ccccc8-c8ccccc87)cc6)cc5)sc4c3)sc2c1S(=O)(=O)O.N [Compound 41] |  | 4.6 | 102 ± 6 |  |  |  | 4.4 ± 0.3 | 4 | 
6 | Cc1ccc2nc(-c3ccc(NC(=O)c4ccc(C(F)(F)F)cc4)cc3)sc2c1S(=O)(=O)O |  | > 100 | 102 ± 9 |  |  |  | > 100 |  | 
7 | Cc1ccc2nc(-c3ccc(NC(=O)c4ccc(NC(=O)c5ccc(NC(=O)OCC6c7ccccc7-c7ccccc76)cc5)cc4)cc3)sc2c1S(=O)(=O)O.N [Compound 51] |  | 1.9 | 113 ± 5 |  |  |  | 2.5 ± 0.5 | 3 | 
8 | Cc1ccc2nc(-c3ccc4nc(-c5ccc(NC(=O)c6cc(F)cc(C(F)(F)F)c6)cc5)sc4c3)sc2c1S(=O)(=O)O [Compound 27, 2′-(4-(3-fluoro-5-(trifluoromethyl)benzamido)phenyl)-6-methyl-[2,6′-bibenzo[d]thiazole]-7-sulfonic acid] |  | 15.8 ± 2.2 | 113 ± 1 | 113 ± 1 |  | 28 ± 7 | 28.4 ± 7 |  | 
9 | Cc1ccc2nc(-c3ccc4nc(-c5ccc(NC(=O)c6ccc7ncoc7c6)cc5)sc4c3)sc2c1S(=O)(=O)O |  | 6.4 | 114 ± 13 |  |  |  | 3.6 ± 1 |  | 
